According to patent US7812014B2, “Bicyclic 6-alkylidene-penems as β-lactamase inhibitors” (priority 2002, dated 2010):
pIC50: −log10 of the molar value. Counter-ions that a name gives are not always drawn. Like-named read-outs stand apart in the source and are kept apart here.

How the values were obtained:
[1] = biological target: class A β-lactamase TEM-1 (Escherichia coli, UniProt P62593); test: IC50 determination, β-lactamase inhibition (nitrocefin, spectrophotometric); format: biochemical, E. coli; conditions: enzyme 4.3 nM; 10 minutes preincubation at 25° C.; nitrocefin 50 μg/ml; pH 7.0
Sequence of class A β-lactamase TEM-1 (P62593 24-286 limits assumed): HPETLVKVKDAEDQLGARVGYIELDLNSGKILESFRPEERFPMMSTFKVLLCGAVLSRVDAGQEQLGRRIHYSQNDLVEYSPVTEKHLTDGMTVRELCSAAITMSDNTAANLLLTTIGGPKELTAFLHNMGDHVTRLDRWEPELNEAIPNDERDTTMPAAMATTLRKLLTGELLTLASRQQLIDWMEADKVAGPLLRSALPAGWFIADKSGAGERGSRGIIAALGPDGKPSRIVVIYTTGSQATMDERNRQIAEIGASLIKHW
Experimental: (§1) IC50 Determination for the Penem Inhibitor
(§2) β-Lactamase inhibitory activity of the penem inhibitors was determined spectrophotometrically as described by Bush et al., [Bush, K., Macalintal, C., Rasmussen, B. A., Lee, V. and Yang, Y. Antimicrobial Agents and Chemotherapy 1993, 37, 851]. Homogeneously purified class A β-lactamases TEM-1 from E. coli and Imi-1 from Enterobacter cloacae, class B enzyme CcrA from Bacteroides fragilis and class C enzyme AmpC from Enterobacter cloaca were employed in the assay. The enzyme concentrations for TEM-1, Imi-1, CcrA and AmpC were 4.3, 7.1, 1.2 and 2.1 nM, respectively. A wide range of inhibitor concentrations were prepared in 50 mM PO4, pH 7.0 to include the possible IC50 values. The substrate used to initiate the enzyme reaction was nitrocefin at 50 μg/ml in the same buffer as the inhibitor. Initially the enzyme and inhibitor (20 μl each) were preincubated for 10 minutes at 25° C. prior to the addition of 160 μl volume of nitrocefin. Initial rates of hydrolysis were monitored for 5 minutes at 495 nm using a Molecular Devices Spectra Max 250 with kinetic protocol of SoftMax Program. Readings from the Spectra Max 250 were exported and transferred to Microsoft Excel. The percent of inhibition of each inhibitor concentration was calculated based on the control enzyme activity. The inhibitor concentration that caused a 50% reduction in the enzymatic activity (IC50) was determined graphically.

[2] = biological target: class C enzyme AmpC (Enterobacter cloacae, UniProt P05364); test: biochemical; design: species or system Enterobacter cloaca; conditions: for IC50: enzyme 2.1 nM, 10 minutes preincubation at 25° C., nitrocefin 50 μg/ml, pH 7.0, read-out: IC50 (nM) Class C AmpC
Sequence of class C enzyme AmpC (P05364 21-381): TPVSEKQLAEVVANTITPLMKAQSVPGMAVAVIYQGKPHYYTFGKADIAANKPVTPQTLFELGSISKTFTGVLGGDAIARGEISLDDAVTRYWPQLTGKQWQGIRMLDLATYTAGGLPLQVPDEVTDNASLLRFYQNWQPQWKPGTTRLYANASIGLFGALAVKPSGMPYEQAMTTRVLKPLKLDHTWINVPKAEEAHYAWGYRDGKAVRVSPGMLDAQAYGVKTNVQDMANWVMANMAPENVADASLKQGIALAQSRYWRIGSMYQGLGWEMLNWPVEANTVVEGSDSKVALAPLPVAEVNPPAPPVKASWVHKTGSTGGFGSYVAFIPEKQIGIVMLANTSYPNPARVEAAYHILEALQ
Experimental: as §1, §2

[3] = biological target: class B enzyme CcrA (Bacteroides fragilis, UniProt P25910); test: IC50 determination, β-lactamase inhibition (nitrocefin, spectrophotometric); format: biochemical; conditions: for IC50: enzyme 1.2 nM, 10 minutes preincubation at 25° C., nitrocefin 50 μg/ml, pH 7.0, read-out: IC50 (nM) Class B Ccr
Sequence of class B enzyme CcrA (P25910 19-249): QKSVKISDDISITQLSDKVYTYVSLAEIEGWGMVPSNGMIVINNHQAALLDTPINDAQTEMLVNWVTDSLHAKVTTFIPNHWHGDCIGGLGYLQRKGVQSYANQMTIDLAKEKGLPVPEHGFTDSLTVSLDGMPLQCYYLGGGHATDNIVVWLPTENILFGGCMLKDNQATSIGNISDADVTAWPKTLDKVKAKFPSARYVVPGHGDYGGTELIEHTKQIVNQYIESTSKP
Experimental: as §1, §2

[4] = biological target: class A β-lactamase Imi-1 (Enterobacter cloacae, UniProt Q46991); test: as above; format: biochemical; conditions: for IC50: enzyme 7.1 nM, 10 minutes preincubation at 25° C., nitrocefin 50 μg/ml, pH 7.0, read-out: IC50 (nM) Class A Imi
Sequence of class A β-lactamase Imi-1 (Q46991 28-292): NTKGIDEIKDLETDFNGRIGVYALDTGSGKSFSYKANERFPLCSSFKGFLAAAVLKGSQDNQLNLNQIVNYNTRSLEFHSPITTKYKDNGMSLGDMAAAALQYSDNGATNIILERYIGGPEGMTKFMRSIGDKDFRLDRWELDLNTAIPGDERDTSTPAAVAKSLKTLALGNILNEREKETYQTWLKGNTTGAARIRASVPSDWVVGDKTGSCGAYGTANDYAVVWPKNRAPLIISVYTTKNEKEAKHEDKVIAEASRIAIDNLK
Experimental: as §1, §2

[5] = system: Clinical isolates that have been adapted to cause infection in mice; test: In vivo antibacterial protection, 7 day survival of infected mice; design: species or system mice strain CD-1; conditions: Mus musculus, 168 h
Source text: In Vivo Antibacterial Protection
Female mice strain CD-1, approximately 18-22 grams, were received from Charles River Laboratories and quarantined 7 days prior to use. In addition, mice may be rendered neutropenic using cytoxan.
Clinical isolates that have been adapted to cause infection in mice, are used in the experiment, including infections with strains of E. coli, K. pneumoniae, M. morganii, E. cloacae, S. marcescens, C. freundii, staphylococci, streptococci, P. aeruginosa and N. gonorrhoeae.
Mice are challenged by injecting 0.5 ml intraperitoneally or 0.05 ml intranasally of a predetermined bacterial inoculum suspended in broth, saline or hog gastric mucin (supplemented with dried bovine hemoglobin for N. gonorrhoeae). […] Antibacterial doses (dose concentration prepared by two fold serial dilutions of the antibiotic) are dissolved or suspended in 0.2% aqueous agar or methocel, phosphate buffered saline or an adjuvant are administered orally, subcutaneously or intravenously in the following manner: • a) Orally or subcutaneously: Dose volume of 0.5 ml administered ½ hr after infection. A second dose may be administered 3 hr. after infection for treatment of infections with more virulent organisms. • b) Intravenously: Dose volume of 0.2 ml, administered ½ hr. after infection. For the treatment of infections with more virulent organisms, more doses, up to 48 hr may be administered. (Intravenous dosing will not exceed 3 doses/24 hr period.) • c) Oral pretreatment: Under special circumstances, the pH of the stomach needs to be adjusted in order to increase the gastric stability of the antibiotic. For this purpose, 0.5 ml of phosphate buffered saline (pH7.8, 0.06M) (or specific approved adjuvant) is administered orally ½ hr after infection, followed 5 minutes later by 0.5 ml of antibiotic (also orally) contained in phosphate buffered saline (pH7.8, 0.06M). Animal Species
A detailed explanation as to the number of animals needed for the determination of in vivo efficacy follows: • A) Novel antibiotics are tested at 5 different dose levels with 5 mice per dose level at each of three routes of administration (oral, subcutaneous and intravenous). […] This would require 25 mice/route with 3 routes/antibiotic or 75 mice per novel compound tested. One to two novel antibiotics will be tested per experiment (75-150 mice) • B) The effectiveness of the new compound must be compared to that of a standard, or antibiotic of known effectiveness. Known or previously tested antibiotics are tested at 5 dose levels with 5 mice per dose level by a single route of administration, for a total of 25 mice/antibiotic. Usually 3-6 antibiotics will be tested per experiment. (75-150 mice). • C) Untreated controls—In each of the above tests, untreated animals are infected with 3 different concentrations of bacterial inoculum with 10 mice per concentration (30 mice total in each and every test). These untreated controls are used to determine and maintain the infection level between 10-100 LD50s as required for test to test comparison and validity. Determination of Protective Effects of Antibacterial Agents:
The protective effects of the antibacterial agent(s) are measured by the survival of the infected untreated as compared to the treated animals. […] A census of survivors is taken twice daily and at that time dead as well as moribund animals are removed. […] The test is performed three times on separate days to provide a statistically valid number of animals and to minimize variation in test results on a day to day and test to test basis.

[6] = Ratio of Piperacillin vs. Inhibitor 4:1, read-out: ED50
[7] = Ratio of Piperacillin vs. Inhibitor not given, read-out: ED50

SMILES | IC50 [1] [nM] | IC50 [2] [nM] | IC50 [3] [nM] | IC50 [4] [nM] | ED50 ([5]; Ratio of Piperacillin vs. Inhibitor 2:1, read-out: ED50) [mg/kg] | ED50 [5, 6] [mg/kg] | pIC50 [3] | pIC50 [4] | pIC50 [2] | ED50 [5, 7] [mg/kg]
CC(=O)N1CCc2sc(/C=C3/C(=O)N4C(C(=O)[O-])=CS[C@H]34)cc2C1.[Na+] (single isomer, unassigned) [Example 34, Sodium salt] | 4.2 | 6.5 | 99 | 34 | – | – | – | – | – | –
CN1CCn2cc(/C=C3/C(=O)N4C(C(=O)O)=CS[C@H]34)nc2C1 [Example 2, (5R),(6Z)-6-(7-Methyl-5,6,7,8-tetrahydroimidazo[1,2-a]pyrazin-2-ylmethylene)-7-oxo-4-thia-1-aza-bicyclo[3.2.0]hept-2-ene-2-carboxylic acid, sodium salt] | 4.4 | 5.8 | 120 | 22 | > 64 | – | – | – | – | –
O=C(O)C1=CS[C@@H]2/C(=C\c3cn4c(n3)CNCC4)C(=O)N12 [Example 3, (5R),(6Z)-7-Oxo-6-(5,6,7,8-tetrahydroimidazo[1,2-a]pyrazin-2-ylmethylene)-4-thia-1-azabicyclo[3.2.0]hept-2-ene-2-carboxylic acid, sodium salt] | 5.4 | 6.2 | – | – | – | 16 to 32 | 6.49 | 7.55 | – | –
O=C(O)C1=CS[C@@H]2/C(=C\c3cn4c(n3)COCC4)C(=O)N12 [Example 7, (5R),(6Z)-6-(5,6-Dihydro-8H-imidazo[2,1-c][1,4]oxazin-2-ylmethylene)-7-oxo-4-thia-1-azabicyclo[3.2.0]hept-2-ene-2-carboxylic acid, sodium salt] | 0.4 | 4.8 | 66 | – | – | 22.8 | – | 8.11 | – | –
O=C(O)C1=CS[C@@H]2/C(=C\c3cc4n(n3)CCC4)C(=O)N12 [Example 8, (5R),(6Z)-6-(5,6-Dihydro-4H-pyrrolo[1,2-b]pyrazol-2-ylmethylene)-7-oxo-4-thia-1-azabicyclo[3.2.0]hept-2-ene-2-carboxylic acid, sodium salt] | 1.2 | 1.5 | 14 | 50 | – | – | – | – | – | –
O=C([O-])C1=CS[C@@H]2/C(=C\c3cc4n(n3)CCCC4)C(=O)N12.[Na+] [Example 9, (5R)(6Z)-7-Oxo-6-(4,5,6,7-tetrahydropyrazolo[1,5-a]pyridin-2-ylmethylene)-4-thia-1-azabicyclo[3.2.0]hept-2-ene-2-carboxylic acid, sodium salt] | 2.2 | – | 62 | – | – | 31.3 | – | 7.05 | 8.49 | –
CN1Cc2nc(/C=C3/C(=O)N4C(C(=O)O)=CS[C@H]34)cn2CC1=O [Example 10, (5R),(6Z)-6-(7-Methyl-6-oxo-5,6,7,8-tetrahydro-imidazo[1,2-a]pyrazin-2-ylmethylene)-7-oxo-4-thia-1-aza-bicyclo[3.2.0]hept-2-ene-2-carboxylic acid sodium salt] | 10 | 3 | 140 | 65 | – | – | – | – | – | –
O=C(O)C1=CS[C@@H]2/C(=C\c3cc4n(n3)CCOC4=O)C(=O)N12 [Example 14, (5R,6Z)-7-oxo-6-[(4-oxo-6,7-dihydro-4H-pyrazolo[5,1-c][1,4]oxazin-2-yl)methylene]-4-thia-1-azabicyclo[3.2.0]hept-2-ene-2-carboxylic Acid] | 2.5 | 3.8 | 26 | 68 | – | – | – | – | – | –
O=C(O)C1=CSC2C(=Cc3cc4c(s3)CCOC4)C(=O)N12 (centres unmarked) [Example 15, 6-(6,7-Dihydro-4H-thieno[3,2-c]pyran-2-ylmethylene)-7-oxo-4-thia-1-aza-bicyclo[3.2.0]hept-2-ene-2-carboxylic acid] | 1.2 | 3.8 | 14 | 8.6 | – | – | – | – | – | –
O=C(O)C1=CSC2C(=Cc3cc4c(s3)CCSC4)C(=O)N12 (centres unmarked) [Example 16, 6-(6,7-Dihydro-4H-thieno[3,2-c]thiopyran-2-ylmethylene)-7-oxo-4-thia-1-aza-bicyclo[3.2.0]hept-2-ene-2-carboxylic acid] | 3.1 | 4.2 | 12 | 25 | – | – | – | – | – | –
CCOC(=O)N1CCc2sc(C=C3C(=O)N4C(C(=O)O)=CSC34)cc2C1 (centres unmarked) [Example 18, 2-(2-Carboxy-7-oxo-4-thia-1-aza-bicyclo[3.2.0]hept-2-en-6-ylidenemethyl)-6,7-dihydro-4H-thieno[3,2-c]pyridine-5-carboxylic acid ethyl ester] | 2.8 | 9.2 | 120 | 50 | – | – | – | – | – | –
O=C(O)C1=CS[C@@H]2/C(=C\c3cn4c(n3)CN(Cc3ccccc3)CC4)C(=O)N12 [Example 20, (5R),(6Z)-6-(7-Benzyl-5,6,7,8-tetrahydroimidazo[1,2-a]pyrazin-2-ylmethylene)-7-oxo-4-thia-1-azabicyclo[3.2.0]hept-2-ene-2-carboxylic acid, sodium salt] | 1.4 | 3.1 | 18 | 9.6 | – | – | – | – | – | –
O=C(O)C1=CS[C@@H]2/C(=C\c3cc4c(s3)CCN(Cc3cccnc3)C4)C(=O)N12 [Example 21] | 9.8 | 18 | 280 | 40 | – | – | – | – | – | –
O=C([O-])C1=CS[C@@H]2/C(=C\c3cc4n(n3)CSCC4)C(=O)N12.[Na+] [Example 28, (5R)(6Z)-6-(4,5-Dihydro-6-thia-1,7a-diazainden-2-ylmethylene)-7-oxo-4-thia-1-azabicyclo[3.2.0]hept-2-ene-2-carboxylic acid, sodium salt] | – | – | – | – | – | – | – | – | – | 31
O=C(O)C1=CS[C@@H]2/C(=C\c3cnc4n3CCSC4)C(=O)N12 [Example 30, (5R),(6Z)-6-(5,6-Dihydro-8-H-imidazo[2,1-c][1,4]thiazin-3-ylmethylene)-7-oxo-4-thia-1-azabicyclo[3.2.0]hept-2-ene-2-carboxylic acid] | 2.9 | 2.5 | 7.8 | 2300 | – | – | – | – | – | –
O=C([O-])C1=CS[C@@H]2/C(=C\c3cc4n(n3)CCS4)C(=O)N12.[Na+] [Example 32, (5R)(6Z)-6-(2,3-Dihydropyrazolo[5,1-b]thiazol-6-ylmethylene)-7-oxo-4-thia-1-azabicyclo[3.2.0]hept-2-ene-2-carboxylic acid, sodium salt] | – | – | – | – | – | – | – | – | – | 46
